{"source": "patent US12290511B2", "about": "“Pharmaceutical preparation containing pyridyl aminoacetic acid compound” (Santen Pharmaceutical Co., Ltd., priority 2017, dated 2025)", "tested_on": "patients with primary open angle glaucoma or ocular hypertension resistant to treatment with latanoprost ophthalmic solution", "assay": "Clinical test: 0.002% (w/v) omidenepag isopropyl eye drop A in patients resistant to latanoprost ophthalmic solution", "format": "in vivo, humans", "protocol": "Examination was conducted on the efficacy of omidenepag isopropyl on patients with inadequate efficacies of other glaucoma or ocular hypertension therapeutic agents.\nOmidenepag isopropyl, polyoxyl 35 castor oil, glycerin, citric acid, sodium citrate, sodium edetate, and benzalkonium chloride were dissolved into purified water to adjust the pH. Thereafter, purified water was added to adjust the total volume, thereby preparing a 0.002% (w/v) omidenepag isopropyl eye drop A.\nPatients with primary open angle glaucoma or ocular hypertension were subjected to a washout period of 1 to 4 weeks, and then received a binocular instillation of 0.005% latanoprost ophthalmic solution in an amount of 1 drop once a day for 8 weeks as an induction phase (week −8 to baseline). The patients with primary open angle glaucoma (21 humans) or ocular hypertension (5 humans) resistant to treatment with latanoprost ophthalmic solution, whose rate of decrease in intraocular pressure from the start of instillation was 15% or less at the end of the induction phase, entered the treatment phase (baseline to week 4), and received a binocular instillation of the above-described 0.002% (w/v) omidenepag isopropyl eye drop A in an amount of 1 drop (about 0.03 mL) once a day for 4 weeks every day.", "data": [{"smiles": "CC(C)OC(=O)CNc1cccc(CN(Cc2ccc(-n3cccn3)cc2)S(=O)(=O)c2cccnc2)n1", "note": "[omidenepag isopropyl, isopropyl (6-{[4-(pyrazol-1-yl)benzyl](pyridin-3-ylsulfonyl)aminomethyl}pyridin-2-ylamino)acetate]", "values": [{"measurement": "intraocular pressure lowering compared with latanoprost instillation", "result": "lowers intraocular pressure to a greater extent than latanoprost instillation"}]}]}
